Series [1] can be described thus: Cmax in patient with severe burns at 1 g, iv. The format is ADME, organism-based. Also noted: dose 1 g, route intravenous. The note with it: human, in vivo.
Series [2] in a line: Cmax in healthy human at 1 g, iv. Also noted: dose 1 g, route intravenous. It counts as ADME, organism-based. The note with it: in vivo.
Series [3] deals with Homo sapiens. Description: AUC (0 to infinity) in patient with severe burns at 1 g, iv. The format is ADME, organism-based, Plasma. Set-up: dose 1 g, time infinity, route intravenous. The note with it: in vivo.
In series [4] the test system is Homo sapiens. Description: AUC (0 to infinity) in healthy human at 1 g, iv. The format is ADME, organism-based, Plasma. Also noted: dose 1 g, time infinity, route intravenous. To be noted: in vivo.
Series [5] is described as follows: Mean residence time in patient with severe burns at 1 g, iv. It counts as ADME, organism-based. The note with it: human, in vivo.
The nature of series [6]: Mean residence time in healthy human at 1 g, iv. It counts as ADME, organism-based. To be noted: in vivo.
Series [7] is described as follows: Half life in patient with severe burns at 1 g, iv. It counts as ADME, organism-based. The note with it: human, in vivo.
Series [8] is described as follows: Half life in healthy human at 1 g, iv. It counts as ADME, organism-based. The note with it: in vivo.
Series [9] is described as follows: Volume of distribution at steady state in patient with severe burns at 1 g, iv. It counts as ADME, organism-based. The note with it: human, in vivo, read-out: Vdss.
A short description of series [10]: Volume of distribution at steady state in healthy human at 1 g, iv. The format is ADME, organism-based. To be noted: in vivo, read-out: Vdss.
Series [11] can be described thus: Terminal half life in patient with severe burns at 1 g, iv. The note with it: human, in vivo, read-out: beta t1/2 (converted). The format is ADME, organism-based.
Series [12] in a line: Terminal half life in healthy human at 1 g, iv. The format is ADME, organism-based. To be noted: in vivo, read-out: beta t1/2 (converted).
Series [13] is described as follows: Renal clearance in patient with severe burns at 1 g, iv. The format is ADME, organism-based, Kidney. The note with it: human, in vivo, read-out: CL_renal.
A short description of series [14]: Renal clearance in healthy human at 1 g, iv. The format is ADME, organism-based, Kidney. The note with it: in vivo, read-out: CL_renal.
The nature of series [15]: Plasma protein binding in patient with severe burns at 1 g, iv. The format is ADME, cell-free. To be noted: human, read-out: PPB (converted).
The nature of series [16]: Plasma protein binding in healthy human at 1 g, iv. To be noted: read-out: PPB (converted). The format is ADME, cell-free.
For series [17], the system named is Homo sapiens. Description: Clearance in healthy human at 1 g, iv. The note with it: in vivo.
Series [18] has as its system Homo sapiens. In words: Clearance in patient with severe burns at 1 g, iv. To be noted: in vivo.

For orientation: Cmax means the peak of the concentration-time curve. Broadly, the AUC is concentration integrated over time. One may read the MRT as a mean duration of stay, worked out from the concentration-time curve. For `CC(=O)OCC1=C(C(=O)O)N2C(=O)[C@@H](NC(=O)Cc3cccs3)[C@H]2SC1` [CEPHALOTHIN], the Cmax in series [1] came out at 38700 ng/mL; in [2], 21300 ng/mL. Moreover, the AUC in the series with Homo sapiens [3] came out at 12000 ng·h/mL; in the series on Homo sapiens [4] it was 9890 ng·h/mL. For the same compound, the values for the MRT in series [5] and in [6] were 35.4 min and 22.8 min, respectively. In addition, the half-life in [7] was 24.6 min; in series [8], 15.6 min; in series [11] it was 54.6 min; in [12], 44.4 min. Besides, the Vd was 0.63 L/kg in [9] and 0.6 L/kg in series [10]. In addition, the values for the CL renal in series [13] and in series [14] were 148 mL/min and 98 mL/min, respectively. The fraction unbound in series [15] was 0.41; in series [16], 0.29. The CL with Homo sapiens [17] came to 26.3 mL/min/kg; in the series on Homo sapiens [18] it was 19.8 mL/min/kg.

These data come from ChEMBL document CHEMBL1649272, “Unbound cephalothin pharmacokinetics in adult burn patients are related to the elapsed time after injury” (Antimicrob Agents Chemother, 2009).
